Here are results for 7 compounds from patent US20130210771A1, “METHODS AND COMPOSITIONS FOR TREATING CANCERS” (IRM LLC, priority 2007, published 2013).

Counter-ions that a name gives are not always drawn. A value given as a limit tells only on which side of the number the result lay.

The subject of test [1] is BCR-ABL positive leukemia. The test can be described thus: treatment of mice transplanted with BCR-ABL positive bone marrow (CML-like disease). In kind it is in vivo, mouse.
Protocol: Ptch+/− mice (Jackson Laboratory), Smo−/− mice (Deltagene), C57BL/6 mice (Jackson laboratory) and B6-Pep3b-Ly5.1 (Pep) mice) are maintained and genotyped as described. For bone marrow transplantation experiments, C57BL/6 males are injected with 5-FU (150 mg/kg) intraperitoneal and sacrificed four days later. Bone marrow mononuclear cells are flushed from the leg bones, red blood cells are lysed with ammonium-chloride and bone marrow cells are cultivated in DMEM containing 10% FBS, SCF, IL-6 and IL-3. Cells are infected with a pMSCV/BCR-ABL/IRES/GFP retrovirus, 5×10^5 mononuclear cells are transplanted into lethally irradiated C57BL/6 mice. Treatment with AMN107 50 mg/kg bid (Novartis, Basel) and cyclopamine 25 mg/kg bid (Novartis, Cambridge) started day 7 after transplantation for 14 days.
Mice transplanted with BCR-ABL positive bone marrow is treated with either a suboptimal dose of the ABL inhibitor AMN107, or with a combination of AMN107 (50 mg/kg qd) and the Smo antagonist cyclopamine (25 mg/kg bid). Treatment is started seven days after transplantation and is continued for fourteen days total. At the end of the treatment, three mice in each group are sacrificed and bone marrow from 1 femur is plated in methyl cellulose colony assays without addition of cytokines to detect only BCR-ABL positive colonies.
Eight days after the end of treatment, another three mice per group are sacrificed and examined for signs of relapse by comparing liver and spleen weight. […] The five remaining mice in each group are monitored for signs of disease and sacrificed when moribund.
In test [2] the test system is Ba/F3 cells transfected with M351T mutant BCR-ABL. The conditions noted are these: cited from earlier work.
Test [3] concerns Ba/F3 cells transfected with E255V mutant BCR-ABL. The conditions noted are these: cited from earlier work.
The subject of test [4] is Ba/F3 cells transfected with p210 non-mutated BCR-ABL. As to conditions: cited from earlier work.
The test system of test [5] is CML. As to conditions: CML therapy; cited from earlier work.
The subject of test [6] is BCR-ABL positive colonies. The test can be described thus: methyl cellulose colony assay of pretreated mixed bone marrow and spleen cultures. The class given is cell-based, mouse. The conditions noted are these: 10, 5, 2.5, 1 and 0 uM for 48 hours; colonies counted 10 days after plating, no cytokines (FIG. 2C). As for the experimental part: (§1) Bone marrow cells from diseased mice are cultured in DMEM media containing 10% FBS (Gibco), SCF (RDI), IL-3 and IL-6 (R&D systems). For in-vitro treatment experiments, 4×10^6 bone marrow or spleen cells are seeded into 1 well of a 6-well plate. Cyclopamine-KAAD (obtained from Toronto Research Chemicals) is dissolved as ×1,000 stock in DMSO. After 72 hours of treatment, cells are plated in methyl cellulose media containing SCF, IL-6, IL-3 and insulin from stem cell technologies (M3434) according to the manufacturer's instruction. Colonies are counted 5 days and 10 days after plating. After 12 days, cells are diluted from the plates, washed in PBS and then either stained for analysis of different cell types or replated into a second or third plating round.
To further validate the effect of hedgehog pathway inhibition on the self renewing progenitor and leukemic stem cell population, mixed bone marrow and spleen cultures are treated with different concentrations of cyclopamine-KAAD (10, 5, 2.5, 1 and 0 uM) for 48 hours. The cells are then plated in methyl cellulose plates without supplementary cytokines, so that only BCR-ABL positive cells can survive. Colonies are counted 10 days after plating.

Test [7] deals with BCR-ABL positive bone marrow cells. Briefly: in vitro treatment of mixed bone marrow cultures from mice with CML-like syndrome, flow cytometry. The class given is cell-based, mouse. As for the experimental part: as §1
Flow cytometry stainings for analysis of hematological cell types is performed using the antibodies Sca-PE, Kit-APC, Lin markers CD3, Gr-1, CD11b, CD19, Ter119 all PE-Cy7 positive, CD4-PE, CD8-APC from BD Pharmingen according to the manufacturer's instructions. For cell cycle analysis of stem cells, cells are treated with cyclopamine for 48 hours, then stained with Lin markers, Kit-APC and Sca-PE. Stained bone marrow is then fixed in 2% Formalin. Cells are permeabilized with 70% chilled ethanol for at least 1 hour and then treated with propidium iodide (5 mg/ml) for at least 30 minutes. Cells are analyzed using a flow cytometer from Coulter. Annexin staining is performed after incubation of mixed bone marrow with cyclopamine for 24, 48 and 72 hours. Cells are stained with Annexin-PE antibody and 7-AAD (BD Bioscience) according to the manufacturer's instructions.
Bone marrow from mice with CML-like syndrome which contained about 50% BCR-ABL GFP positive cells versus 50% normal bone marrow cells is used. […] GFP positive cells after in vitro treatment with cyclopamine (2 μM or 5 μM) can be detected by flow cytometry analysis.
(§2) Gli1 transcript levels in the bone marrow are reduced after treatment with cyclopamine, verifying the inhibition of the hedgehog signaling pathway in those cells by the compound (FIG. 2B). In FIG. 2B, bone marrow cultures are treated with either DMSO alone or different concentrations of cyclopamine (2 μM or 5 μM) for six hours. RNA is extracted from treated cultures and Gli1 transcript levels are measured by Taqman PCT and normalized to GAPDH. Assays are done in triplicates.
A general note: Flow cytometry measures light scatter and fluorescence of single cells or particles in a stream.

For test [8], the system named is Aurora kinases. The conditions noted are these: cited from earlier work.
Test [9] relates to human CML K562 cells selected for resistance to imatinib. The conditions noted are these: cited from earlier work.
Test [10] has as its system Gli1. The test can be described thus: Gli1 transcript levels in treated bone marrow cultures (Taqman PCR). The class given is cell-based, mouse. The conditions noted are these: 2 μM or 5 μM, six hours, normalized to GAPDH (FIG. 2B). As for the experimental part: RNA is extracted from CD34+ cells from CML patients in chronic phase or blast crisis of disease, from whole bone marrow or from sorted Lin−Kit+Sca+ positive cells using a Qiagen RNA extraction kit according to the manufacturer's recommendation. Quantitative PCR is assessed by Taqman PCR. Primers and probes are obtained from Applied Biosystems.
as §2

Setting [11] is: eight days after the end of treatment.
The mark [12] stands for this setting: mixed bone marrow cultures, 72 hours (FIG. 2A).

For the compound `Cc1cn(-c2cc(NC(=O)c3ccc(C)c(Nc4nccc(-c5cccnc5)n4)c3)cc(C(F)(F)F)c2)cn1` [AMN107, nilotinib], the “peripheral blood cell counts, spleen and liver weights” value in [1] (at the end of the treatment) is on record as “normal”. For the same compound, in test [1] (setting [11]), the “average spleen size relative to the combination group” value is “about double” and the “liver weight relative to the combination group” value was “much higher”. Besides, the “average survival after end of treatment” value in test [1] (five mice per group, sacrificed when moribund (FIG. 5C)) was “eight”.

Turning to `NC(=O)c1cccc(-c2cc(Nc3ccc(OC(F)(F)F)cc3)ncn2)c1` [GNF-2, 3-[6-[[4-(trifluoromethoxy)phenyl]amino]-4-pyrimidinyl]benzamide], in test [2], the “proliferation of Ba/F3 cells, M351T mutant BCR-ABL” value is given as “inhibits the proliferation”. Further, the “proliferation of Ba/F3 cells, E255V mutant BCR-ABL” value in test [3] is reported as “inhibits the proliferation”. The “proliferation of Ba/F3 cells, p210 non-mutated BCR-ABL” value in test [4] was “inhibits the proliferation”.

As for `Cc1ccc(NC(=O)c2ccc(CN3CCN(C)CC3)cc2)cc1Nc1nccc(-c2cccnc2)n1` [Imatinib mesylate], in [5], the response rates entry was “more than 96%”.

For `CC1=C2C[C@H]3[C@@H](CC=C4CC(=O)CC[C@@]43C)[C@@H]2CC[C@]12O[C@@H]1C[C@H](C)CN(CCNC(=O)CCCCCNC(=O)CCc3ccccc3)[C@H]1[C@H]2C` [KAAD-cyclopamine], in [6], the BCR-ABL positive colonies result was “dose dependent reduction”. In [7] (mixed bone marrow cultures, three days, 2 μM or 5 μM), the “reduction of the GFP/BCR-ABL positive population compared to the GFP negative population” value is listed as “dose dependent reduction”.

With `Cc1cc(Nc2cc(N3CCN(C)CC3)nc(Sc3ccc(NC(=O)C4CC4)cc3)n2)n[nH]1` [MK-0457], the “inhibition of all three Aurora kinases” value in [8] is reported as “nanomolar range”.

Regarding `Cc1cc(Nc2ncc3cc(-c4c(Cl)cccc4Cl)c(=O)n(C)c3n2)ccc1F` [PD180970], the “proliferation of imatinib-resistant K562 cells over-expressing Lyn” value in [9] is “inhibited”.

With `CC1=C2C[C@H]3[C@@H](CC=C4C[C@@H](O)CC[C@@]43C)[C@@H]2CC[C@]12O[C@@H]1C[C@H](C)CN[C@H]1[C@H]2C` [cyclopamine], the “Gli1 transcript levels in the bone marrow” value in [10] is “reduced”. In addition, in test [7] (48 hours, propidium iodide), the “alterations in the cell cycle, complete bone marrow” value is “relative increase of the G1 phase compared to S phase and G2 phase”; the “cell cycle analysis of the leukemic stem cell population” value was “complete loss of the G2 phase”. The “apoptosis induction in BCR-ABL positive bone marrow cells, time” value in test [7] (AnnexinV staining) is at most 24 h. Moreover, in [7] (setting [12]), the “reduction of BCR-ABL positive myeloid progenitor cells (Lin−Kit+Sca−)” value is listed as “more than 80%” and the “reduction of the Lin−Kit+Sca+ leukemic stem cell population” value was “around 70%”.
